Results taken from US10450356B2, “PRAME derived peptides and immunogenic compositions comprising these” (Academisch Ziekenhuis Leiden H.O.D.N. LUMC, priority 2007, dated 2019).

Target: T1, 20S proteasomes purified from a B-LCL cell line (immunoproteasomes) (Homo sapiens, UniProt P28062+P28065+P40306)
T1 construct: 20S proteasomes were purified from a B-LCL cell line; endogenous in cells; purified after Groettrup et al. 1995
Experiment: In vitro proteasome mediated cleavage analysis
Assay type: biochemical
Parameters: key to Intact in fragment / Intact Fragment: intact epitope found in digestion fragments: (+), present; (-), not present; key to Processing C-term: generation by proteasome-mediated digestion of fragments containing the correct C-terminus: (++) fragments present for >5%; (+) present for <5%; (-) no fragments containing the C-term. were found
Settings: for Processing C-term: generation by proteasome-mediated digestion of fragments containing the correct C-terminus: 1 h digestion; for Intact Fragment: intact epitope found in digestion fragments: after 1 h digestion; for C-term. generation: generation of C-terminus of the epitope after 1 h digestion; for Intact in fragment: intact epitope found in digestion fragments after 1 h digestion
Description: 20S proteasomes were purified from a B-LCL cell line as described by Groettrup et al. (J. Biol. Chem. 270:23808-23815; 1995). This cell type is known to contain immunoproteasomes. High LMP2 and 7 content was confirmed by 2-D immuno-blotting. To assess kinetics, digestions were performed with different incubation periods. Peptides (27 mers, 20 μg) were incubated with 1 μg of purified proteasome at 37° C. for 1 h, 4 h and 24 h in 300 μl proteasome digestion buffer as described (Eggers, et al. 1995. J. Exp. Med. 182:1865). Trifluoroacetic acid was added to stop the digestion and samples were stored at −20° C. before mass spectrometric analysis.
Electrospray ionization mass spectrometry was performed on a hybrid quadrupole time-of-flight mass spectrometer, a Q-TOF (Micromass), equipped with an on-line nanoelectrospray interface with an approximate flow rate of 250 nL/min. Injections were done with a dedicated micro/nano HPLC autosampler, the FAMOS (LC Packings). Digestion solutions were diluted five times in water-methanol-acetic acid (95:5:1, v/v/v), and trapped on the precolumn (MCA-300-05-C8; LC Packings) in water-methanol-acetic acid (95:5:1, v/v/v). Washing of the precolumn was done for 3 min to remove the buffers present in the digests. Subsequently, the trapped analytes were eluted with a steep gradient going from 70% B to 90% B in 10 min, with a flow of 250 nl/min (A: water-methanol-acetic acid (95:5:1, v/v/v); B: water-methanol-acetic acid (10:90:1, v/v/v)). This low elution rate allows for a few additional MS/MS experiments if necessary during the same elution. Mass spectra were recorded from mass 50-2000 Da every second. The resolution allows direct determination of the monoisotopic mass, also from multiple charged ions. The peaks in the mass spectrum were searched in the digested precursor peptide using the Biolynx/proteins software (Micromass). The intensity of the peaks in the mass spectra was used to establish the relative amounts of peptides generated by proteasome digestion.

CC(C)C[C@H](NC(=O)[C@H](CC(=O)O)NC(=O)[C@H](CC(C)C)NC(=O)[C@@H](NC(=O)[C@H](CCC(N)=O)NC(=O)[C@H](CC(C)C)NC(=O)[C@@H](N)CCCCN)C(C)C)C(=O)N[C@@H](CCCNC(=N)N)C(=O)N[C@@H](CCCCN)C(=O)O
Processing C-term: generation by proteasome-mediated digestion of fragments containing the correct C-terminus: - | Intact Fragment: intact epitope found in digestion fragments: -

CC[C@H](C)[C@H](NC(=O)[C@H](CO)NC(=O)CNC(=O)[C@H](Cc1c[nH]c2ccccc12)NC(=O)[C@H](CC(C)C)NC(=O)[C@@H](N)CCCNC(=N)N)C(=O)N[C@@H](CCC(N)=O)C(=O)N[C@@H](CO)C(=O)N[C@@H](CCCNC(=N)N)C(=O)N[C@@H](Cc1ccc(O)cc1)C(=O)O
Processing C-term: generation by proteasome-mediated digestion of fragments containing the correct C-terminus: - | Intact Fragment: intact epitope found in digestion fragments: -

CC[C@H](C)[C@H](NC(=O)[C@H](Cc1ccc(O)cc1)NC(=O)[C@@H](N)CCCNC(=N)N)C(=O)N[C@@H](CO)C(=O)N[C@@H](CCSC)C(=O)N[C@@H](CO)C(=O)N[C@H](C(=O)N[C@@H](Cc1c[nH]c2ccccc12)C(=O)N[C@H](C(=O)N[C@@H](CO)C(=O)O)[C@@H](C)O)C(C)C
Processing C-term: generation by proteasome-mediated digestion of fragments containing the correct C-terminus: - | Intact Fragment: intact epitope found in digestion fragments: -

CC(C)C[C@H](NC(=O)[C@H](CCCCN)NC(=O)[C@H](CCCCN)NC(=O)[C@H](CS)NC(=O)[C@H](CS)NC(=O)[C@H](CC(C)C)NC(=O)[C@H](CCCNC(=N)N)NC(=O)[C@H](CC(C)C)NC(=O)[C@@H](N)C(C)C)C(=O)N[C@@H](CCCCN)C(=O)O
Processing C-term: generation by proteasome-mediated digestion of fragments containing the correct C-terminus: - | Intact Fragment: intact epitope found in digestion fragments: -

CSCC[C@H](N)C(=O)N[C@@H](CC(C)C)C(=O)N[C@H](C(=O)N[C@@H](CC(=O)O)C(=O)N[C@H](C(=O)N[C@@H](CO)C(=O)N1CCC[C@H]1C(=O)N[C@@H](CCC(=O)O)C(=O)N1CCC[C@H]1C(=O)N[C@@H](CC(C)C)C(=O)O)C(C)C)[C@@H](C)O
Processing C-term: generation by proteasome-mediated digestion of fragments containing the correct C-terminus: - | Intact Fragment: intact epitope found in digestion fragments: -

CC[C@H](C)[C@H](NC(=O)[C@H](CO)NC(=O)CNC(=O)[C@H](Cc1c[nH]c2ccccc12)NC(=O)[C@H](CC(C)C)NC(=O)[C@@H](N)CCCNC(=N)N)C(=O)N[C@@H](CCC(N)=O)C(=O)N[C@@H](CO)C(=O)N[C@@H](CCCNC(=N)N)C(=O)O
Processing C-term: generation by proteasome-mediated digestion of fragments containing the correct C-terminus: - | Intact Fragment: intact epitope found in digestion fragments: -

CC(C)C[C@H](NC(=O)[C@H](CC(C)C)NC(=O)[C@H](CCC(N)=O)NC(=O)[C@H](CC(=O)O)NC(=O)[C@H](CC(C)C)NC(=O)[C@H](CCCNC(=N)N)NC(=O)CNC(=O)[C@H](CCCNC(=N)N)NC(=O)[C@H](CC(C)C)NC(=O)[C@@H](N)Cc1ccccc1)C(=O)O
Processing C-term: generation by proteasome-mediated digestion of fragments containing the correct C-terminus: - | Intact Fragment: intact epitope found in digestion fragments: -

CC[C@H](C)[C@H](N)C(=O)N1CCC[C@H]1C(=O)N[C@H](C(=O)N[C@@H](CCC(=O)O)C(=O)N[C@H](C(=O)N[C@@H](CC(C)C)C(=O)N[C@H](C(=O)N[C@@H](CC(=O)O)C(=O)N[C@@H](CC(C)C)C(=O)N[C@@H](Cc1ccccc1)C(=O)O)C(C)C)C(C)C)C(C)C
Processing C-term: generation by proteasome-mediated digestion of fragments containing the correct C-terminus: - | Intact Fragment: intact epitope found in digestion fragments: -

CC[C@H](C)[C@H](NC(=O)[C@H](CCSC)NC(=O)[C@H](CCC(N)=O)NC(=O)CNC(=O)[C@H](CC(C)C)NC(=O)[C@@H](N)Cc1ccc(O)cc1)C(=O)N[C@@H](CC(N)=O)C(=O)N[C@@H](CC(C)C)C(=O)N[C@@H](CCCNC(=N)N)C(=O)N[C@@H](CCCNC(=N)N)C(=O)O
Processing C-term: generation by proteasome-mediated digestion of fragments containing the correct C-terminus: - | Intact Fragment: intact epitope found in digestion fragments: -

CC(C)C[C@H](NC(=O)[C@H](CCC(=O)O)NC(=O)[C@H](CCCNC(=N)N)NC(=O)[C@H](CC(C)C)NC(=O)[C@H](CCCNC(=N)N)NC(=O)[C@H](C)NC(=O)[C@H](Cc1c[nH]cn1)NC(=O)[C@H](CC(C)C)NC(=O)[C@H](Cc1ccc(O)cc1)NC(=O)[C@H](C)N)C(=O)O
Processing C-term: generation by proteasome-mediated digestion of fragments containing the correct C-terminus: + ((+) present for <5%) | Intact Fragment: intact epitope found in digestion fragments: + | C-term. generation: + (low abundant (+) present for <5%) | Intact in fragment: +

CC(C)C[C@H](NC(=O)[C@H](CCCNC(=N)N)NC(=O)[C@H](CC(C)C)NC(=O)[C@@H](NC(=O)[C@@H](N)CC(N)=O)C(C)C)C(=O)N[C@@H](CS)C(=O)N[C@@H](CS)C(=O)N[C@@H](CCCCN)C(=O)N[C@@H](CCCCN)C(=O)O
Processing C-term: generation by proteasome-mediated digestion of fragments containing the correct C-terminus: - | Intact Fragment: intact epitope found in digestion fragments: -

CC[C@H](C)[C@H](NC(=O)[C@H](C)NC(=O)[C@H](CC(C)C)NC(=O)[C@H](C)N)C(=O)N[C@@H](C)C(=O)N[C@@H](C)C(=O)N[C@@H](CC(C)C)C(=O)N[C@@H](CCC(=O)O)C(=O)N[C@@H](CC(C)C)C(=O)N[C@@H](CC(C)C)C(=O)O
Processing C-term: generation by proteasome-mediated digestion of fragments containing the correct C-terminus: - | Intact Fragment: intact epitope found in digestion fragments: -

CC(C)C[C@H](NC(=O)[C@H](C)NC(=O)[C@H](CCC(N)=O)NC(=O)[C@H](CC(C)C)NC(=O)[C@H](CS)NC(=O)[C@H](CCC(N)=O)NC(=O)[C@H](CC(C)C)NC(=O)[C@H](CO)NC(=O)[C@H](CC(C)C)NC(=O)[C@@H](N)Cc1ccccc1)C(=O)O [FLSLQCLQAL]
Processing C-term: generation by proteasome-mediated digestion of fragments containing the correct C-terminus: - | Intact Fragment: intact epitope found in digestion fragments: -

CC[C@H](C)[C@H](NC(=O)[C@H](CC(C)C)NC(=O)[C@@H](N)Cc1ccc(O)cc1)C(=O)N[C@@H](CCC(=O)O)C(=O)N[C@@H](CCCCN)C(=O)N[C@H](C(=O)N[C@@H](CCCCN)C(=O)N[C@@H](CCCNC(=N)N)C(=O)N[C@@H](CCCCN)C(=O)N[C@@H](CCCCN)C(=O)O)C(C)C
Processing C-term: generation by proteasome-mediated digestion of fragments containing the correct C-terminus: - | Intact Fragment: intact epitope found in digestion fragments: -

CC(C)C[C@H](NC(=O)[C@@H](NC(=O)[C@H](Cc1c[nH]cn1)NC(=O)[C@@H](NC(=O)[C@H](CC(C)C)NC(=O)[C@@H](N)CC(N)=O)[C@@H](C)O)C(C)C)C(=O)N[C@@H](Cc1ccc(O)cc1)C(=O)N1CCC[C@H]1C(=O)N[C@H](C(=O)O)C(C)C
Processing C-term: generation by proteasome-mediated digestion of fragments containing the correct C-terminus: - | Intact Fragment: intact epitope found in digestion fragments: -

CC[C@H](C)[C@H](NC(=O)[C@H](Cc1ccc(O)cc1)NC(=O)[C@@H](N)CCC(N)=O)C(=O)N[C@@H](C)C(=O)N[C@@H](CCC(N)=O)C(=O)N[C@@H](Cc1ccccc1)C(=O)N[C@H](C(=O)N[C@@H](CO)C(=O)N[C@@H](CCC(N)=O)C(=O)N[C@@H](Cc1ccccc1)C(=O)O)[C@@H](C)O
Processing C-term: generation by proteasome-mediated digestion of fragments containing the correct C-terminus: ++ ((++) fragments present for >5%) | Intact Fragment: intact epitope found in digestion fragments: + | C-term. generation: ++ (abundant (++) present for >5%) | Intact in fragment: +

CC(C)C[C@H](NC(=O)[C@@H](NC(=O)[C@@H]1CCCN1C(=O)[C@H](CC(C)C)NC(=O)[C@H](CCCCN)NC(=O)[C@H](Cc1c[nH]c2ccccc12)NC(=O)[C@@H](NC(=O)[C@@H](N)CS)[C@@H](C)O)[C@@H](C)O)C(=O)N[C@@H](C)C(=O)O
Processing C-term: generation by proteasome-mediated digestion of fragments containing the correct C-terminus: - | Intact Fragment: intact epitope found in digestion fragments: -

CC[C@H](C)[C@H](NC(=O)[C@@H](N)CO)C(=O)N[C@@H](CO)C(=O)N[C@@H](C)C(=O)N[C@@H](CC(C)C)C(=O)N[C@@H](CCC(N)=O)C(=O)N[C@@H](CO)C(=O)N[C@@H](CC(C)C)C(=O)N[C@@H](CC(C)C)C(=O)O
Processing C-term: generation by proteasome-mediated digestion of fragments containing the correct C-terminus: - | Intact Fragment: intact epitope found in digestion fragments: -

CC(C)C[C@H](NC(=O)[C@H](CCC(=O)O)NC(=O)[C@H](CS)NC(=O)[C@H](CC(C)C)NC(=O)[C@H](CC(C)C)NC(=O)[C@H](CCC(=O)O)NC(=O)[C@H](CCCNC(=N)N)NC(=O)[C@H](CC(C)C)NC(=O)[C@@H](N)CCCNC(=N)N)C(=O)O
Processing C-term: generation by proteasome-mediated digestion of fragments containing the correct C-terminus: - | Intact Fragment: intact epitope found in digestion fragments: -

CSCC[C@H](NC(=O)[C@@H](NC(=O)CNC(=O)[C@H](CO)NC(=O)[C@H](CC(C)C)NC(=O)[C@@H](N)CO)C(C)C)C(=O)N[C@@H](CC(C)C)C(=O)N[C@H](C(=O)N[C@@H](CC(=O)O)C(=O)N[C@H](C(=O)O)C(C)C)[C@@H](C)O
Processing C-term: generation by proteasome-mediated digestion of fragments containing the correct C-terminus: - | Intact Fragment: intact epitope found in digestion fragments: -
